Entries after “also recorded” stand apart in the source; their conditions may differ. Where no end group is shown, it is not given here.
Columns and labels:
Pseudomonas aeruginosa [1] = test: Bacterial lysis (broth dilution) assay, MBC; assay type: cell-based; parameters: MBC, Psuedomonas aeruginosa, 0 mM NaCl / MBC, Psuedomonas aeruginosa, 150 mM NaCl: unit not given here; conditions: for MBC, Psuedomonas aeruginosa, 0 mM NaCl: 0 mM NaCl (10 mM phosphate buffer); for MBC, Psuedomonas aeruginosa, 0 mM NaCl / MBC, Psuedomonas aeruginosa, 150 mM NaCl: 99.9% killing; for MBC, Psuedomonas aeruginosa, 150 mM NaCl: 150 mM NaCl (physiologic)
[2] = tested on: Methicillin Resistant S. aureus; assay type: cell-based, Staphylococcus aureus; parameters: unit not given here; conditions: 99.9% killing; for MBC, Methicillin Resistant S. aureus, 0 mM NaCl: 0 mM NaCl (10 mM phosphate buffer)
[3] = biological target: Ca^2+ saturated calmodulin (Homo sapiens, UniProt P0DP23); conditions: host cell Ca^2+ saturated calmodulin; cited from earlier work
Staphylococcus aureus [4] = conditions: 1×10^5 colony-forming units; cited from earlier work
Staphylococcus aureus [5] = test: Bacterial lysis (broth dilution) assay, MBC; assay type: cell-based; conditions: 99.9% killing; for MBC, Staphylococcus aureus, 0 mM NaCl: 0 mM NaCl (10 mM phosphate buffer); for MBC, Staphylococcus aureus, 150 mM NaCl: 150 mM NaCl (physiologic)
Text: The assays for growth inhibition of a microbial target can be used to derive a minimum bactericidal concentration (MBC) value for the peptide, i.e., the concentration of peptide required to kill 99.9% (3-log decrease) of the microbial sample being tested. This value is well known to those in the art as representative of the effectiveness of a particular antimicrobial agent (e.g., an antibiotic) against a particular organism or group of organisms. In assays to detect the MBC of a peptide, growth inhibition of a bacterial population also can be measured with reference to the number of colony forming units (cfu) after exposure to a peptide relative to a control experiment without a peptide.
Bacterial lysis assay. Bacterial lysis assays were conducted in a manner similar to that described previously (Lehrer, R. I., M. E. Selsted, D. Szklarek, and F. J. 1983. Infect. Immun. 42: 10-4, 1983; Miller, M. A., R. F. Garry, J. M. Jaynes, and R. C. Montelaro, AIDS Res Hum Retroviruses 7:511-519, 1991). Bacterial suspensions were cultured in Luria-Bertani Broth to mid-log growth phase and washed by two cycles of centrifugation and suspension in 10 mM phosphate buffer. The Abs600 of the suspension was adjusted with 10 mM phosphate buffer such that, upon dilution, 5-10×10^5 cfu/mL would be treated in the assay. Bacteria were incubated for 1 h with two-fold dilutions of peptides (100 μM to 100 nM) in 96-well plates using 10 mM phosphate buffer, pH 7.2, as a diluent. Ten-fold dilutions of bacteria were performed to 1:1 000; a 100 μl aliquot from each condition was spread on the surface of tryptic soy agar plates (Difco, Detroit, Mich.) which were incubated overnight. Colonies of surviving bacteria (cfu, colony-forming units) were counted and compared to untreated controls to determine the amount of peptide-induced killing under each condition. Log killing is defined as the log of the ratio of cfu present before and after treatment with peptide. The minimal bactericidal concentration, MBC, is the peptide concentration at which 99.9% (three log) killing is achieved (Pearson et al., Antimicrob. Agents Chemother. 18: 699-708, 1980).
Results. Representative gram positive (S. aureus) and gram negative (P. aeruginosa) clinical isolates were used as the index bacteria to survey the peptides described herein.
A limitation of many host-derived antimicrobial peptides is their decreased activity at physiologic (150 mM) NaCl concentration. See Friedrich et al., Antimicrobial Agents and Chemotherapy 43:1542-1548. The peptides WLSA-5 (SEQ ID NO: 3) and LL37 were tested against the two index strains at physiologic NaCl. […] The activity of antimicrobial peptides described herein were compared to an expanded list of clinical bacterial isolates. These are summarized in Table 2 by comparing their MBCs in phosphate buffer alone (low salt) and phosphate buffer containing 150 mM NaCl (physiologic conditions). Inspection of this table would lead one skilled in the art to conclude that the activity of antimicrobial peptides described herein compare favorably to the host derived antimicrobial peptides as it relates to the spectrum and potency of antimicrobial activity.

[6] = tested on: diverse gram-negative and -positive bacterial isolates; conditions: cited from earlier work
Pseudomonas aeruginosa [7] = conditions: 1×10^5 colony-forming units; cited from earlier work
S. aureus [8] = test: Bactericidal activity in human synovial fluid
S. aureus [9] = test: Rabbit joint model of septic arthritis
P. aeruginosa = test: LSA-5 bound to Affigel 15 column, viable bacteria in eluant; conditions: same column repeatedly exposed to bacterial suspensions
[10] = tested on: HIV-1 (strain IIIB) virions; test: Suppression of HIV-1 infectivity, p24 antigen in PHA stimulated PBMCs; assay type: cell-based; conditions: 1 and 0.1 μM
Method: In this example human peripheral blood […] (PBMCs) were obtained from healthy volunteers and maintained in culture at a concentration of 1×10^5 viable cells per mL of medium. These cells were stimulated by the addition of phytohemagglutinin (PHA). To this a standardized titer of purified HIV-1 (strain IIIB) virions was added to PBMCs to generate a p24 antigen signal of 14,000 pg/mL five days post exposure to virus.
In order to test whether the LLP peptide, LSA-5 (SEQ ID NO: 2) was able to suppress HIV-1 activity, LSA-5 at concentrations ranging between 0.1 and 100 μM were incubated with the standard virus titer determined as above for 30 min. Virions surviving peptide exposure were isolated by ultracentrifugation at 100,000×g for 60 min. Viral pellets were used to infect PHA stimulated PBMCs prepared as described above. Five days post infection the level of p24 antigen was determined and compared to a non-peptide treated control. The data was expressed as the ratio of p24 antigen associated with peptide-treated vs. non-peptide treated HIV-1 infected cells to obtain a value referred to as percent suppression.

S. epidermidis = test: In vitro activity against S. epidermidis

| Substance | MBC, Methicillin Resistant S. aureus, 0 mM NaCl [2] | MBC, Psuedomonas aeruginosa, 0 mM NaCl (Pseudomonas aeruginosa [1]) | MBC, Psuedomonas aeruginosa, 150 mM NaCl (Pseudomonas aeruginosa [1]) | MBC, Staphylococcus aureus, 0 mM NaCl (Staphylococcus aureus [5]) [µM] | MBC, Staphylococcus aureus, 150 mM NaCl (Staphylococcus aureus [5]) [µM] | other results |
| --- | --- | --- | --- | --- | --- | --- |
| LL37: human cathelicidin, 37-amino acid amphiphilic a-helical cationic host derived antimicrobial peptide (LLGDFFRKSKEKIGKEFKRIVQRIKDFLRNLVPRTES; Antibacterial peptide LL-37; UniProt P49913 134-170, looked up) [reference compound] | – | – | – | – | – | P. aeruginosa killing, influence of physiologic NaCl (Pseudomonas aeruginosa [1]; phosphate buffer with 150 mM NaCl versus low salt): not affected by NaCl inclusion |
| LLP1: prototypical lentiviral lytic peptide, amino acids 828-856 of the HIV-1 viral isolate HXB2R Env (SEQ ID NO: 19) (RVIEVVQGACRAIRHIPRRIRQGLERIL; Human immunodeficiency virus type 1) [reference compound] | 16000 | 1000 | 1000 | 8 | 16 | binding affinity to calmodulin [3]: near nanomolar affinity; time to nearly sterilize suspension, S. aureus (Staphylococcus aureus [4]): ≤ 60 s; antibacterial activity compared with magainin-2 [6]: equal to, or more potent than magainin-2; time to nearly sterilize suspension, P. aeruginosa (Pseudomonas aeruginosa [7]): ≤ 60 s |
| RRVVRRVRRVVRRVVRVVRRVVRR [LBU-2] | – | 1500 | 800 | 1.5 | – | – |
| RRVVRRVRRVVRRVVRVVRRVVRRVRRVVRRVVRVVRRVVRR (RRVVRRVRRVVRRVVRVVRRVVRRVRRVVRRVVRVVRRVVRR; Antimicrobial peptide) [LBU-3.5] | 1500 | 400 | 400 | 1 | 0.6 | MBC, Methicillin Resistant S. aureus, 150 mM NaCl ([2]; 150 mM NaCl (physiologic)): 200 |
| RVIRVVQRACRAIRHIVRRIRQGLRRIL (RVIRVVQRACRAIRHIVRRIRQGLRRIL; Antimicrobial peptide) [SA-5] | – | 1000 | 1000 | 1 | – | – |
| RVIRVVQRACRAIRHIVRRIRQGLRRILRVV [LSA-5, RVIRVVQRACRAIRHIVRRIRQGLRRILRVV] | 150 | 800 | 800 | 1 | 1 | concentration at which peptide is still active in synovial fluid (S. aureus [8]; 1:4 dilution of human synovial fluid, FIG. 10): 128 µM; effect of synovial fluid on activity (S. aureus [8]; versus phosphate buffer containing physiologic NaCl): clearly impairs the activity; bacteria (colony forming units) in joint fluid (S. aureus [9]; 50, 100 and 200 μM intraarticularly, 1 h after instillation, versus non-peptide treated joint, FIG. 11): dose-dependent decrease in colony forming units; also recorded: significantly increases bacterial killing; bacterial load in joint, comparison with 0.35% neomycin (S. aureus [9]; intraarticular at 0, 1 and 2 h, FIG. 12): nearly as effective as a standard concentration of neomycin; adverse toxicity in animal experiments (S. aureus [9]; peptide administered alone, intraarticular): no adverse toxicity was observed; bacterial load in joint (S. aureus [9]; two treatments of 150 μM at 0 and 1 h, 1 h post-treatment, versus phosphate buffer): significant decrease; passages of bacterial suspension over which the column maintained activity (P. aeruginosa): up to 6 passages; reduction of HIV-1 infectivity [10]: drop off this inhibitory activity; activity against S. epidermidis in vitro (S. epidermidis): highly active |
